Results on one molecule are retold here after the NIST ThermoML archive (doi:10.1021/acs.jced.9b00696).

SMILES strings stand for the structures. Numbers after ± are expanded uncertainties.

Data set [1] in a line: Molar enthalpy of transition or fusion. Particulars: Crystal; DSC.
For data set [2] the following is noted: Crystal; DSC.

In the case of `C[C@]12CCC3=C4CCC(=O)C=C4CC[C@H]3[C@@H]1CC[C@@]2(O)CC#N` [dienogest], the “Molar enthalpy of transition or fusion” value in data set [1] came out at 7.23 ± 0.335 kcal/mol. Besides, the Triple point temperature in data set [2] is listed as 485.01 ± 0.81 K.
